Experimental data published in the METLIN SMRT retention time set (Domingo-Almenara et al. 2019).

Assay: gradient 5% acetonitrile 3 min, to 50% in 2 min, to 85% in 15 min, held 3 min, 100 µL/min
Settings: column: Zorbax Extend-C18 2.1 x 50 mm; eluents: water / acetonitrile, 0.1% formic acid
In short: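 Each retention time is based on an adduct peak selected computationally and verified by manual inspection. Measurements used HPLC–quadrupole time-of-flight mass spectrometry in positive and negative ionization mode on mixtures of ~100 pure standards. Chromatography ran on a Zorbax Extend-C18 column (2.1 × 50 mm, 1.8 μm) at 100 μL/min with water and acetonitrile, each containing 0.1% formic acid, and dead and dwell volumes of 40 μL and 900 μL.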

Row | Compound | RP-LC retention time
1 | Cc1ccc(NC(=O)C2CCc3sc(C(=O)N4CCOCC4)cc3C2)cc1 (centres undefined) | 842 s
2 | COC(=O)c1ccccc1NC(=O)c1c(O)c2cccnc2n(-c2ccc(F)cc2)c1=O | 1180 s
3 | O=C(N[C@H]1C[C@@H]2C[C@H]1N(C(=O)c1ccccc1Cl)C2)c1cccs1 | 643 s
4 | Cc1cc(OCC(=O)NCc2cccs2)nc(-c2ccc(Cl)cc2)n1 | 1050 s
5 | Cc1ccccc1OCCCCn1c(CN2CCOCC2)nc2ccccc21 | 646 s
6 | CCc1nc(-c2csc(S(=O)(=O)N3CCCC(C(=O)Nc4ccccc4OC)C3)c2)no1 (centres undefined) | 1060 s
7 | COc1cccc2nc(NC(=O)c3ccc(Br)s3)sc12 | 990 s
8 | O=C(Cn1cnc2c(sc3nc(-c4ccccc4)ccc32)c1=O)Nc1ccc(Cl)cc1F | 1110 s
9 | O=C(NCCC1CCN(C(=O)Nc2cc(F)cc(F)c2)CC1)c1ccoc1 | 798 s
10 | CCOCCCNC(=O)C1CCN(c2nccnc2Oc2ccccc2C)CC1 | 841 s
11 | O=C(NCCN1CCCC1)c1nc(Nc2ccc(F)cc2)c2ccccc2n1 | 689 s
12 | Cc1ccc(Oc2nccnc2N2CCC(C(=O)NCCCN3CCOCC3)CC2)cc1 | 648 s
13 | CCn1c(CCNC(=O)c2ccccc2F)nc2cccnc21 | 602 s
14 | COc1cccc2cc(C(=O)Nc3nc4c(s3)CN(S(=O)(=O)C3CC3)CC4)oc12 | 811 s
15 | Cc1ccc(N2CCC(NC(=O)c3cccc(C#N)c3)C2=O)cc1 (centres undefined) | 813 s
16 | CCCCOc1ccc(S(=O)(=O)N2CCN(c3nc(C)cc(N4CCOCC4)n3)CC2)cc1 | 818 s
17 | COc1ccc2[nH]cc(CCNC(=O)Cn3nc4c(cc3=O)CCCC4)c2c1 | 714 s
18 | COc1ccc(N2CCN(C(=O)c3cn4ccccc4n3)CC2)cc1 | 603 s
19 | COc1ccc(/C=C/c2nc(-c3cccc(-c4ccnn4C)c3)no2)cc1OC | 1050 s
20 | Cc1cccc(NC(=O)Cc2cn3cc(F)ccc3n2)c1C | 600 s
21 | COc1ccc(C(O)Cn2ccn3nc(-c4cc(C)ccc4C)cc3c2=O)cc1 (centres undefined) | 949 s
22 | CCOc1ccc(S(=O)(=O)N2C[C@@H]3C[C@H](NC(=O)c4ccccc4)[C@H]2C3)cc1 | 900 s
23 | O=C(Nc1nc(-c2ccc([N+](=O)[O-])cc2)cs1)c1ccc2ncsc2c1 | 892 s
24 | CCOc1ccc(-c2ccc3nnc(SCC(=O)Nc4nc(C)cs4)n3n2)cc1 | 752 s
25 | O=C(NCC(c1ccsc1)N1CCc2ccccc2C1)c1cccs1 (centres undefined) | 569 s
26 | Cc1noc(C)c1-c1ccc(S(=O)(=O)N2CCc3ccccc32)cc1 | 1040 s

Row | Compound | RP-LC retention time
27 | Cc1ccc(NC(=O)N2CCCC(Cn3c(C4CC4)nc4cccnc43)C2)c(C)c1 (centres undefined) | 694 s
28 | COc1ccc(C)cc1NC(=O)c1cc(C)n2nc(C)cc2n1 | 1040 s
29 | CCOC(=O)c1c(C)[nH]c(C(=O)N2CCC(CC(=O)NCc3cccc(F)c3)CC2)c1C | 779 s
30 | CN1C(=O)CCC2(CNC(=O)c3cnccn3)CCC=C12 (centres undefined) | 644 s
31 | Fc1ccc(-c2noc(-c3nc(-c4ccncc4)no3)n2)cc1F | 1040 s
32 | CC(C)S(=O)(=O)c1ccc(CC(=O)N2CCC(c3nnc(-c4ccco4)o3)CC2)cc1 | 669 s
33 | CN1CCCc2cc(C(CNC(=O)C(=O)Nc3ccc4c(c3)OCO4)N3CCCC3)ccc21 (centres undefined) | 714 s
34 | O=C(c1ccnnc1)N1CC(F)(F)C[C@H]1c1nnc(-c2ccccc2)o1 | 696 s
35 | Cc1ccc(CNC(=O)C2(C)CN(S(C)(=O)=O)CC(=O)N2CCC(C)C)cc1 (centres undefined) | 865 s
36 | CN(C)S(=O)(=O)c1ccc(C(=O)Nc2nnc(-c3cc4ccccc4o3)o2)cc1 | 789 s
37 | COc1ccc(-c2cc(C(=O)Nc3cc(Cl)ccc3C)no2)cc1 | 1150 s
38 | CCOC(=O)C1CCc2sc(NC(=O)CCn3cnc4ccccc4c3=O)nc21 (centres undefined) | 690 s
39 | Cc1cc(=O)n(CC(=O)Nc2ccccc2)c(N2CCc3ccccc3C2)n1 | 765 s
40 | COc1ccc(-c2n[nH]c3c2C(c2ccc(OC)cc2OC)NC3=O)cc1 (centres undefined) | 736 s
41 | CCn1cc(S(=O)(=O)N2CCc3ccccc3C2)c2cccnc21 | 950 s
42 | Cc1noc(C)c1CCNC(=O)c1ccc2nc(Cc3ccccc3)oc2c1 | 830 s
43 | COc1ccccc1CC(=O)Nc1ccc(-c2nc(Cn3cc(C)cn3)c(C)o2)cc1 | 909 s
44 | O=c1cc(-c2ccccc2)oc2c(O)c(O)ccc12 | 720 s
45 | Nc1cccc(-c2nccnc2N2CCCC2)c1 | 595 s
46 | O=C(Cn1ccn2nc(-c3ccccc3)c(CO)c2c1=O)Nc1cc(F)ccc1Cl | 868 s
47 | COCCCN(CC(=O)N1CCNCC1)C(=O)c1ccc(F)c(Cl)c1 | 596 s
48 | CCCCOC(=O)c1ccc(NC(=O)c2cnc3scc(C)n3c2=O)cc1 | 1050 s
49 | Cn1c(=O)n([C@H]2CCN(S(=O)(=O)c3ccccc3Cl)C2)c2ncccc21 | 840 s
50 | O=C(NCC(c1ccsc1)N1CCCC1)Nc1ccc(Cl)cc1 (centres undefined) | 578 s
51 | CCCN1CCN(CCCNC(=O)CN2C(=O)CCn3nc(-c4cn(C)c5ccccc45)cc32)CC1 | 589 s

Results, then the molecule that gave them:

Row | RP-LC retention time | Compound
52 | 606 s | Cn1c(C2CCCN(S(C)(=O)=O)C2)nn(CC(=O)NC2CCCCC2)c1=O (centres undefined)
53 | 763 s | O=C(NC1CCCC1)C1CCCN(c2ccc(=O)n(-c3ccc(F)cc3)n2)C1 (centres undefined)
54 | 950 s | CCOC(=O)c1c(NC(=O)CSc2nc(=O)n3cccc(C)c3n2)sc2c1CCC2
55 | 690 s | Cn1ccnc1SCC(=O)Nc1nc(-c2ccc(Cl)cc2)cs1
56 | 1020 s | CSc1ccccc1NC(=O)c1cc2ncc(Br)cn2n1
57 | 835 s | Cc1ccc(-n2nnnc2CNC(=O)c2cc(Br)ccc2Cl)cc1
58 | 922 s | CCOC(=O)c1ccc(NC(=O)Cn2cccc(-c3nc(-c4ccc(F)cc4)no3)c2=O)cc1
59 | 1220 s | Cc1ccc(-n2nc(C)c3c(C(F)(F)F)cc(OCC(=O)NCc4ccco4)nc32)cc1
60 | 617 s | O=C(Nc1ncccn1)c1c[nH]c2c(Cl)cccc2c1=O
61 | 1060 s | Cc1ccc(C)c(NC(=O)C2CCCN(S(=O)(=O)c3cc(-c4noc(C)n4)cs3)C2)c1 (centres undefined)
62 | 692 s | CNC(=O)c1cccc(Nc2c(-c3ccc(Cl)cc3)nc3cnccn23)c1
63 | 959 s | Cc1cc(NC(=O)NCC(=O)N2CCc3ccccc32)ccc1Br
64 | 693 s | COc1cccc(CNC(=O)c2ccc(CN3CCN(C(C)C)C(=O)C3=O)cc2)c1
65 | 689 s | O=C(CCC1CCN(c2cc(NC3CC3)ncn2)CC1)NCc1ccc(F)cc1Cl
66 | 838 s | O=C(Nc1ccc(Cl)cc1)Nc1cccn2ncnc12
67 | 618 s | CCc1nccn1Cc1nc(-c2ccc(OC)c(OC)c2)no1
68 | 858 s | CS(=O)(=O)N1CC(F)(F)C[C@H]1c1nc(-c2ccccc2)no1
69 | 904 s | CCSc1nnc(NC(=O)CN(C)c2nc3c(Cl)cccc3s2)s1
70 | 893 s | O=[N+]([O-])c1ccccc1S(=O)(=O)N1CCc2ccccc21

Row | RP-LC retention time | Compound
71 | 1120 s | CCc1cccc(NC(=O)C2(C)Oc3cccnc3N(C(C)C)C2=O)c1 (centres undefined)
72 | 814 s | CCn1cc(C)c(C(=O)O)c1CC(=O)NC1CCCCCC1
73 | 1060 s | Cc1ccc(-c2noc(Cn3nc(-c4ccc5c(c4)OCO5)ccc3=O)n2)cc1C
74 | 960 s | O=C(Cn1cccc(-c2nc(-c3ccc(F)cc3)no2)c1=O)Nc1ccc(F)c(Cl)c1
75 | 821 s | Cc1ccc(-n2c(N3CCC(C(=O)NCC(C)C)CC3)nc3ccsc3c2=O)cc1
76 | 793 s | O=C(c1ccc(-c2noc(C3CC3)n2)cc1)N1CCN(c2nc3cccnc3o2)CC1
77 | 789 s | CCCn1nc(CNC(=O)c2ccoc2)c2ccccc21
78 | 738 s | Cc1oc(-c2[nH]ncc2C(=O)N2CCCCC2)cc1S(=O)(=O)Nc1ccc(F)cc1
79 | 644 s | O=C(NCc1ccco1)C1CCN(c2nc3ccc(-c4cccnc4)nc3s2)CC1
80 | 1030 s | Cc1ccc(NC(=O)N2CCCC2c2nc(-c3cccc(F)c3)no2)c(C)c1 (centres undefined)
81 | 805 s | O=S(=O)(c1cccc(-c2cn3cc(Cl)ccc3n2)c1)N1CCCC1
82 | 853 s | O=C(Cn1nc2c(c1NC(=O)Cc1noc3ccccc13)CSC2)NCC1CCCO1 (centres undefined)
83 | 866 s | COc1ccc(OC)c(CNC(=O)COc2nc(C)nc3oc(C)c(C)c23)c1
84 | 1340 s | Cc1ccc(-c2cc3c(=O)n(Cc4nc(-c5ccc(Br)cc5)no4)ncn3n2)c(C)c1
85 | 996 s | CCc1nc(-c2ccc3c(c2)CCN3C(=O)Cc2cc(OC)cc(OC)c2)no1
86 | 701 s | Cc1cccc(CNC(=O)C2CCCN(c3cc(=O)n(C)c(=O)n3C)C2)c1 (centres undefined)
87 | 1070 s | CCOc1cccc(-c2noc(Cc3nnc(-c4cccc(F)c4)o3)n2)c1
88 | 589 s | COc1ccc(CC(=O)N2CCc3nc(CNC(=O)C4CCC4)n(C)c3C2)cc1
89 | 876 s | COc1cc(NC(=O)CN2C(=O)C(C)(C)c3ccccc32)cc(OC)c1
